Test results reported in US10407409B2, “6-(5-hydroxy-1H-pyrazol-1-yl)nicotinamide inhibitors of PHD” (Takeda Pharmaceutical Company Limited, priority 2013, dated 2019).

Tests used:
[1] = test system: HIF1a protein in H9c2 rat cardiomyocytes; test: Cell-based HIF-alpha stabilization assay (inhibition of PHD in cells); details: 24 hrs compound incubation, HIF1a protein by ELISA; for EC50: Rattus norvegicus, H9c2, 24 h, read-out: Inhibition of PHD in cells (pEC50) (converted)
Procedure, shortened: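 Rat H9c2 cardiomyocytes, cultured 24 h, were treated 24 h with an 11-point serial dilution of compound. HIF1a in whole-cell lysates was quantified by ELISA as % of the maximal desferrioxamine response. EC50 came from curve fitting; EC50pos is the concentration reaching 50% of the desferrioxamine maximum.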

[2] = target: PHD2 enzyme (residues 181-417) (Homo sapiens (Human), UniProt Q9GZT9); test: Inhibition of PHD enzyme (LC/MS peptide hydroxylation assay); assay type: biochemical; details: PHD2 (residues 181-417) 5 nM, 60 min pre-incubation; -log(IC50), IC50 molar
Procedure, shortened: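 PHD2 (5 nM final) preincubated with inhibitor 60 min at RT in 50 mM HEPES, 50 mM KCl, 0.5 mM TCEP, 2 uM FeCl2, 0.1 mg/ml BSA, pH 7.3. Reaction started with biotin-peptide (1 uM), 2-oxoglutarate (2 uM), ascorbate (1 mM), quenched at 60 min; hydroxylated product by LC/MS, reported as pIC50.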

Sequence of PHD2 enzyme (residues 181-417) (Q9GZT9 181-417): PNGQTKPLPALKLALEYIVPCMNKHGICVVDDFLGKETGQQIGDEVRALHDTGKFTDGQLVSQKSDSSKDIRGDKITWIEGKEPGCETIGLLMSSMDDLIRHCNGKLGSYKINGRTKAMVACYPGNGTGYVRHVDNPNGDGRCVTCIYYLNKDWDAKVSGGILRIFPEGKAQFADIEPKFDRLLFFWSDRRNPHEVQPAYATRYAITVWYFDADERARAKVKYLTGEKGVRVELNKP

SMILES	PHD Inhibition (pIC50) [2]	Inhibition of PHD in cells (pEC50) [1]	EC50 [1] [nM]
COc1cc(-c2cnn(-c3ccc(C(=O)NCCCn4ccnc4)cn3)c2O)ccn1 [Example 35, N-(3-(1H-imidazol-1-yl)propyl)-6-(5-hydroxy-4-(2-methoxypyridin-4-yl)-1H-pyrazol-1-yl)nicotinamide]	7.8	5.50	
CN(C(=O)c1ccc(-n2ncc(-c3ccc(C#N)cc3)c2O)nc1)C1CC1 [Example 239, 6-(4-(4-cyanophenyl)-5-hydroxy-1H-pyrazol-1-yl)-N-cyclopropyl-N-methylnicotinamide]	7.12		1700
CO[C@H]1CC[C@@H](NC(=O)c2ccc(-n3ncc(-c4ccc(C#N)cc4C)c3O)nc2)CC1 [Example 119, 6-(4-(4-cyano-2-methylphenyl)-5-hydroxy-1H-pyrazol-1-yl)-N-((1 s,4s)-4-methoxycyclohexyl)nicotinamide]	7.11		126
COCCC(C)NC(=O)c1ccc(-n2ncc(-c3ccc(C#N)cc3C)c2O)nc1 (stereo not shown) [Example 69, 6-(4-(4-cyano-2-methylphenyl)-5-hydroxy-1H-pyrazol-1-yl)-N-(4-methoxybutan-2-yl)nicotinamide]	7.22		89.1
N#Cc1ccc(-c2cnn(-c3ccc(C(=O)NC4CCOCC4)cn3)c2O)cc1 [Example 81, 6-(4-(4-cyanophenyl)-5-hydroxy-1H-pyrazol-1-yl)-N-(tetrahydro-2H-pyran-4-yl)nicotinamide]	7.2		4790
N#Cc1ccc(-c2cnn(-c3ccc(C(=O)NC4CCN(C5CC5)CC4)cn3)c2O)cc1 [Example 93, 6-(4-(4-cyanophenyl)-5-hydroxy-1H-pyrazol-1-yl)-N-(1-cyclopropylpiperidin-4-yl)nicotinamide]	7.08		871
N#Cc1ccc(-c2cnn(-c3ccc(C(=O)NC4CCCCC4)cn3)c2O)cc1 [Example 75, 6-(4-(4-cyanophenyl)-5-hydroxy-1H-pyrazol-1-yl)-N-cyclohexylnicotinamide]	7.28		1700
Cc1cc(C#N)ccc1-c1cnn(-c2ccc(C(=O)NCCCO)cn2)c1O [Example 125, 6-(4-(4-cyano-2-methylphenyl)-5-hydroxy-1H-pyrazol-1-yl)-N-(3-hydroxypropyl)nicotinamide]	7.19		372
COc1cc(-c2cnn(-c3ccc(C(=O)NCCCN4CCCC4)cn3)c2O)ccn1 [Example 39, 6-(5-hydroxy-4-(2-methoxypyridin-4-yl)-1H-pyrazol-1-yl)-N-(3-(pyrrolidin-1-yl)propyl)nicotinamide]	7.3	5.58	
COc1cc(-c2cnn(-c3ccc(C(=O)NCCCn4cccn4)cn3)c2O)ccn1 [Example 43, N-(3-(1H-pyrazol-1-yl)propyl)-6-(5-hydroxy-4-(2-methoxypyridin-4-yl)-1H-pyrazol-1-yl)nicotinamide]	8.2		347
Cc1cc(-c2cnn(-c3ccc(C(=O)NCC4CCOCC4)cn3)c2O)ccn1 [Example 223, 6-(5-hydroxy-4-(2-methylpyridin-4-yl)-1H-pyrazol-1-yl)-N-((tetrahydro-2H-pyran-4-yl)methyl)nicotinamide]	5.43		50100
CC(C)NC(=O)c1ccc(-n2ncc(-c3ccc(C#N)cc3)c2O)nc1 [Example 159, 6-(4-(4-cyanophenyl)-5-hydroxy-1H-pyrazol-1-yl)-N-isopropylnicotinamide]	7.15		912
Cc1cc(C#N)ccc1-c1cnn(-c2ccc(C(=O)N3CC4(COC4)C3)cn2)c1O [Example 185, 4-(1-(5-(2-oxa-6-azaspiro[3.3]heptane-6-carbonyl)pyridin-2-yl)-5-hydroxy-1H-pyrazol-4-yl)-3-methylbenzonitrile]	8		562

The next lines start with results.

PHD Inhibition (pIC50) [2]	SMILES	Inhibition of PHD in cells (pEC50) [1]	EC50 [1] [nM]
8.11	Cc1cc(C#N)ccc1-c1cnn(-c2ccc(C(=O)N3CC[C@H](N(C)C)C3)cn2)c1O [Example 412, (S)-4-(1-(5-(3-(dimethylamino)pyrrolidine-1-carbonyl)pyridin-2-yl)-5-hydroxy-1H-pyrazol-4-yl)-3-methylbenzonitrile]		282
8.18	COCCCNC(=O)c1ccc(-n2ncc(-c3cc(OC)c(C#N)cc3C)c2O)nc1 [Example 426, 6-(4-(4-cyano-5-methoxy-2-methylphenyl)-5-hydroxy-1H-pyrazol-1-yl)-N-(3-methoxypropyl)nicotinamide]		2140
8.21	CCN1CCN(C(=O)c2ccc(-n3ncc(-c4ccc(C#N)cc4C)c3O)nc2)CC1(C)C [Example 378, 4-(1-(5-(4-ethyl-3,3-dimethylpiperazine-1-carbonyl)pyridin-2-yl)-5-hydroxy-1H-pyrazol-4-yl)-3-methylbenzonitrile]		1290
7.67	N#Cc1ccc(-c2cnn(-c3ccc(C(=O)N4CCC(N5CCOCC5)C4)cn3)c2O)cc1 (stereo not shown) [Example 351, 4-(5-hydroxy-1-(5-(3-morpholinopyrrolidine-1-carbonyl)pyridin-2-yl)-1H-pyrazol-4-yl)benzonitrile]		5370
8.54	Cc1c(-c2cnn(-c3ccc(C(=O)N4CCN(C)C5(CC5)C4)cn3)c2O)ccc(C#N)c1F [Example 324, 2-fluoro-4-(5-hydroxy-1-(5-(4-methyl-4,7-diazaspiro[2.5]octane-7-carbonyl)pyridin-2-yl)-1H-pyrazol-4-yl)-3-methylbenzonitrile]		832
8.10	Cc1cc(C#N)ccc1-c1cnn(-c2ccc(C(=O)N3CCCN(C)CC3)cn2)c1O [Example 287, 4-(5-hydroxy-1-(5-(4-methyl-1,4-diazepane-1-carbonyl)pyridin-2-yl)-1H-pyrazol-4-yl)-3-methylbenzonitrile]		3550
8.43	Cc1c(-c2cnn(-c3ccc(C(=O)N4CC(N5CCCCC5)C4)cn3)c2O)ccc(C#N)c1F [Example 335, 2-fluoro-4-(5-hydroxy-1-(5-(3-(piperidin-1-yl)azetidine-1-carbonyl)pyridin-2-yl)-1H-pyrazol-4-yl)-3-methylbenzonitrile]		1320
6.77	N#Cc1ccc(-c2cnn(-c3ccc(C(=O)NC4CC(F)(F)C4)cn3)c2O)cc1 [Example 265, 6-(4-(4-cyanophenyl)-5-hydroxy-1H-pyrazol-1-yl)-N-(3,3-difluorocyclobutyl)nicotinamide]		6610
8.07	Cc1cc(C#N)c(F)cc1-c1cnn(-c2ccc(C(=O)N3CC4(CN(C)C4)C3)cn2)c1O [Example 343, 2-fluoro-4-(5-hydroxy-1-(5-(6-methyl-2,6-diazaspiro[3.3]heptane-2-carbonyl)pyridin-2-yl)-1H-pyrazol-4-yl)-5-methylbenzonitrile]		1150
8.23	Cc1cc(C#N)ccc1-c1cnn(-c2ccc(C(=O)N3CCCC(N(C)C4CC4)C3)cn2)c1O (stereo in doubt) [Example 386, (S)-4-(1-(5-(3-(cyclopropyl(methyl)amino)piperidine-1-carbonyl)pyridin-2-yl)-5-hydroxy-1H-pyrazol-4-yl)-3-methylbenzonitrile]	6.15	
